# Reference: BindingDB's records for doi:10.1016/0167-0115(94)90537-1 (Universit&Eacute, 1994)
# Peptide text beside a SMILES is read from it.
# Target: T1, VIP peptides (Rattus norvegicus, UniProt P01283)
# T1 sequence (P01283 whole entry): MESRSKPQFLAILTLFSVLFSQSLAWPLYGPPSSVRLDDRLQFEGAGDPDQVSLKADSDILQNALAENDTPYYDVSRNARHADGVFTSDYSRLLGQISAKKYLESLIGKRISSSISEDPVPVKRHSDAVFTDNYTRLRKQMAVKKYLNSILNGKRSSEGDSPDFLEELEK
row,SMILES,Ki
1,CC[C@H](C)[C@H](NC(=O)CNC(=O)[C@H](CC(=O)O)NC(=O)[C@H](CO)NC(=O)[C@@H](N)Cc1cnc[nH]1)C(=O)N[C@@H](Cc1ccccc1)C(=O)N[C@H](C(=O)N[C@@H](CC(=O)O)C(=O)N[C@@H](CO)C(=O)N[C@@H](Cc1ccc(O)cc1)C(=O)N[C@@H](CO)C(=O)N[C@@H](CCCNC(=N)N)C(=O)N[C@@H](Cc1ccc(O)cc1)C(=O)N[C@@H](CCCNC(=N)N)C(=O)N[C@@H](CCCCN)C(=O)N[C@@H](CCC(N)=O)C(=O)N[C@@H](CCSC)C(=O)N[C@@H](C)C(=O)N[C@H](C(=O)N[C@@H](CCCCN)C(=O)N[C@@H](CCCCN)C(=O)N[C@@H](Cc1ccc(O)cc1)C(=O)N[C@@H](CC(C)C)C(=O)N[C@@H](C)C(=O)N[C@@H](C)C(=O)N[C@H](C(=O)N[C@@H](CC(C)C)C(=O)NCC(=O)N[C@@H](CCCCN)C(=O)N[C@@H](CCCNC(=N)N)C(=O)N[C@@H](Cc1ccc(O)cc1)C(=O)N[C@@H](CCCCN)C(=O)N[C@@H](CCC(N)=O)C(=O)N[C@@H](CCCNC(=N)N)C(=O)N[C@H](C(=O)N[C@@H](CCCCN)C(=O)N[C@@H](CC(N)=O)C(=O)N[C@@H](CCCCN)C(N)=O)C(C)C)C(C)C)C(C)C)[C@@H](C)O [PACAP],2 nM
2,CC[C@H](C)[C@H](NC(=O)[C@H](CO)NC(=O)[C@H](CC(N)=O)NC(=O)[C@H](CC(C)C)NC(=O)[C@H](Cc1ccc(O)cc1)NC(=O)[C@H](CCCCN)NC(=O)[C@H](CCCCN)NC(=O)[C@@H](NC(=O)[C@H](C)NC(=O)[C@H](CCSC)NC(=O)[C@H](CCC(N)=O)NC(=O)[C@H](CCCCN)NC(=O)[C@H](CCCN=C(N)N)NC(=O)[C@H](CC(C)C)NC(=O)[C@H](CCCN=C(N)N)NC(=O)[C@@H](NC(=O)[C@H](Cc1ccc(O)cc1)NC(=O)[C@H](CC(N)=O)NC(=O)[C@H](CC(=O)O)NC(=O)[C@@H](NC(=O)[C@H](Cc1ccccc1)NC(=O)[C@@H](NC(=O)[C@H](C)NC(=O)[C@H](CC(=O)O)NC(=O)[C@H](CO)NC(=O)[C@H](N)Cc1cnc[nH]1)C(C)C)[C@@H](C)O)[C@@H](C)O)C(C)C)C(=O)N[C@@H](CC(C)C)C(=O)N[C@@H](CC(N)=O)C(N)=O [VIP [D-His1]],200 nM
3,CC[C@H](C)[C@H](NC(=O)[C@H](CO)NC(=O)[C@H](CC(N)=O)NC(=O)[C@H](CC(C)C)NC(=O)[C@H](Cc1ccc(O)cc1)NC(=O)[C@H](CCCCN)NC(=O)[C@H](CCCCN)NC(=O)[C@@H](NC(=O)[C@H](C)NC(=O)[C@H](CCSC)NC(=O)[C@H](CCC(N)=O)NC(=O)[C@H](CCCCN)NC(=O)[C@H](CCCN=C(N)N)NC(=O)[C@H](CC(C)C)NC(=O)[C@H](CCCN=C(N)N)NC(=O)[C@@H](NC(=O)[C@H](Cc1ccc(O)cc1)NC(=O)[C@H](CC(N)=O)NC(=O)[C@H](CC(=O)O)NC(=O)[C@@H](NC(=O)[C@H](Cc1ccccc1)NC(=O)[C@@H](NC(=O)[C@H](C)NC(=O)[C@H](CC(=O)O)NC(=O)[C@@H](N)CO)C(C)C)[C@@H](C)O)[C@@H](C)O)C(C)C)C(=O)N[C@@H](CC(C)C)C(=O)N[C@@H](CC(N)=O)C(N)=O [VIP(2-28)] (H-SDAVFTDNYTRLRKQMAVKKYLNSILN-NH2),200 nM
4,CC[C@H](C)[C@H](NC(=O)[C@H](CO)NC(=O)[C@H](CC(N)=O)NC(=O)[C@H](CC(C)C)NC(=O)[C@H](Cc1ccc(O)cc1)NC(=O)[C@H](CCCCN)NC(=O)[C@H](CCCCN)NC(=O)[C@@H](NC(=O)[C@H](C)NC(=O)[C@H](CCSC)NC(=O)[C@H](CCC(N)=O)NC(=O)[C@H](CCCCN)NC(=O)[C@H](CCCN=C(N)N)NC(=O)[C@H](CC(C)C)NC(=O)[C@H](CCCN=C(N)N)NC(=O)[C@@H](NC(=O)[C@H](Cc1ccc(O)cc1)NC(=O)[C@H](CC(N)=O)NC(=O)[C@H](CC(=O)O)NC(=O)[C@@H](NC(=O)[C@H](Cc1ccccc1)NC(=O)[C@@H](NC(=O)[C@H](C)NC(=O)[C@@H](N)CC(=O)O)C(C)C)[C@@H](C)O)[C@@H](C)O)C(C)C)C(=O)N[C@@H](CC(C)C)C(=O)N[C@@H](CC(N)=O)C(N)=O [VIP(3-28)] (H-DAVFTDNYTRLRKQMAVKKYLNSILN-NH2),3000 nM
5,CC[C@H](C)[C@H](NC(=O)CNC(=O)[C@H](CC(=O)O)NC(=O)[C@H](CO)NC(=O)[C@@H](N)Cc1ccccc1)C(=O)N[C@@H](Cc1ccccc1)C(=O)N[C@H](C(=O)N[C@@H](CC(=O)O)C(=O)N[C@@H](CO)C(=O)N[C@@H](Cc1ccc(O)cc1)C(=O)N[C@@H](CO)C(=O)N[C@@H](CCCN=C(N)N)C(=O)N[C@@H](Cc1ccc(O)cc1)C(=O)N[C@@H](CCCN=C(N)N)C(=O)N[C@@H](CCCCN)C(=O)N[C@@H](CCC(N)=O)C(=O)N[C@@H](CCSC)C(=O)N[C@@H](C)C(=O)N[C@H](C(=O)N[C@@H](CCCCN)C(=O)N[C@@H](CCCCN)C(=O)N[C@@H](Cc1ccc(O)cc1)C(=O)N[C@@H](CC(C)C)C(=O)N[C@@H](C)C(=O)N[C@@H](C)C(=O)N[C@H](C(=O)N[C@@H](CC(C)C)C(N)=O)C(C)C)C(C)C)[C@@H](C)O [[Phe1]PACAP(1-27)],300 nM
6,CC[C@H](C)[C@H](NC(=O)[C@H](CO)NC(=O)[C@H](CC(N)=O)NC(=O)[C@H](CC(C)C)NC(=O)[C@H](Cc1ccc(O)cc1)NC(=O)[C@H](CCCCN)NC(=O)[C@H](CCCCN)NC(=O)[C@@H](NC(=O)[C@H](C)NC(=O)[C@H](CCSC)NC(=O)[C@H](CCC(N)=O)NC(=O)[C@H](CCCCN)NC(=O)[C@H](CCCN=C(N)N)NC(=O)[C@H](CC(C)C)NC(=O)[C@H](CCCN=C(N)N)NC(=O)[C@@H](NC(=O)[C@H](Cc1ccc(O)cc1)NC(=O)[C@H](CC(N)=O)NC(=O)[C@H](CC(=O)O)NC(=O)[C@@H](NC(=O)[C@H](Cc1ccccc1)NC(=O)[C@@H](NC(=O)[C@H](C)NC(=O)[C@H](CC(=O)O)NC(=O)[C@H](CO)NC(=O)[C@@H](N)Cc1ccccc1)C(C)C)[C@@H](C)O)[C@@H](C)O)C(C)C)C(=O)N[C@@H](CC(C)C)C(=O)N[C@@H](CC(N)=O)C(N)=O [[Phe1]VIP] (H-FSDAVFTDNYTRLRKQMAVKKYLNSILN-NH2),30 nM
